Patent publication US10857110B2, “Antibacterial compounds” (CONSEJO NACIONAL DE INVESTIGACIONES CIENTÍFICAS Y TÉCNICAS …, priority 2016, dated 2020)
Converted amounts (≈) assume the structure as drawn.

Columns and labels:
Experiment in all cases: MIC/MBC antibiotic sensitivity (CLSI)
Assay type in all cases: cell-based
[1] = tested on: Burkholderia cenocepacia (CBC 023); conditions: Burkholderia cenocepacia (CBC 023); for MIC: read-out: MIC
Protocol: (§1) The new compounds of the invention were synthesized following the general method of preparation (Tetrahedron, 2001, 57, 1671-1675), from the reaction between an intermediary compound of the acyl thiourea and HgCl2 in presence of trimethylamine. The products were adequately characterized regarding its chemistry. The antibacterial activity of the new compounds was assayed against two Gram-positive reference strains: Staphylococcus aureus (ATCC6538) and Bacillus cereus (ATCC10876), a fermenting Gram-negative strain: Escherichia coli (ATCC25922), and 26 non-fermenting Gram-negative isolates, including 3 reference strains: Pseudomonas aeruginosa (PAO1), Bordetella bronchiseptica (9.73H+), and Inquilinus limosus (DSM16000), and 23 isolates recovered from patients suffering from cystic fibrosis, including one Achromobacter xylosoxidans isolate, and 22 isolates belonging to the Burkholderia cepacia complex. The later were selected because they presented resistance to a high number of antimicrobial compounds, among a panel of 125 clinical isolates previously analyzed for its resistance against 17 antimicrobial compounds (1,2). The antibiotic sensitivity studies were performed by applying two quantitative methods which allow to determine the minimum inhibitory concentration (MIC) and the minimum bactericidal concentration (MBC).
(§2) The compounds obtained in Examples 1 and 2 were assayed against 23 isolates recovered from the sputum of patients suffering from cystic fibrosis being treated at the Sor Maria Ludovica Children Hospital (La Plata, Buenos Aires, Argentina). Nineteen of these isolates were selected for being highly resistant to most of the antimicrobial agents of clinical use from a panel of 125 isolates previously characterized in Martina et al. (1). Reference strains were also included: Gram (+) bacteria: B. cereus and S. aureus, fermenting Gram (−) bacteria: E. coli, and non-fermenting Gram (−) bacteria: Inquilinus limosus (DSM16000), B. bronchiseptica, and Pseudomonas aeruginosa (PAO1). The antibiotic sensitivity studies were performed applying two quantitative methods which allow to determine the minimum inhibitory concentration (MIC) and the minimum bactericidal concentration (MBC) according to the criteria established by the Clinical and Laboratory Standards Institute (CLSI) (4). For comparative purposes, three antibiotics commonly used in the treatment of pulmonary infections in cystic fibrosis patients were included in the study: tobramycin, ceftazidime and meropenem.

[2] = tested on: Burkholderia cenocepacia (HE001); conditions: Burkholderia cenocepacia (HE001); for MIC: read-out: MIC
Protocol: as §1, §2

[3] = tested on: Pseudomonas aeruginosa (PAO1); conditions: Pseudomonas aeruginosa, P. aeruginosa (PAO1); for MBC: read-out: MBC; for MIC: read-out: MIC
Protocol: as §1, §2

[4] = tested on: Burkholderia cenocepacia (CBC 035); conditions: Burkholderia cenocepacia (CBC 035); for MBC: read-out: MBC; for MIC: read-out: MIC
Protocol: as §1, §2

[5] = tested on: Burkholderia multivorans (CBC 019); conditions: Burkholderia multivorans (CBC 019); for MIC: read-out: MIC
Protocol: as §1, §2

[6] = tested on: Staphylococcus aureus (ATCC6538); conditions: for MBC / MIC: Staphylococcus aureus, S. aureus (ATCC6538); for MBC: read-out: MBC; for MIC: read-out: MIC; for Selectivity Index (SI): ratio IC50 (THP-I) / MIC against S. aureus
Protocol: as §1, §2

[7] = tested on: Burkholderia multivorans (CBC 020); conditions: Burkholderia multivorans (CBC 020); for MIC: read-out: MIC
Protocol: as §1, §2

[8] = tested on: Burkholderia cenocepacia (CBC 033); conditions: Burkholderia cenocepacia (CBC 033); for MBC: read-out: MBC; for MIC: read-out: MIC
Protocol: as §1, §2

[9] = tested on: Burkholderia multivorans (CBC 015); conditions: Burkholderia multivorans (CBC 015); for MBC: read-out: MBC; for MIC: read-out: MIC
Protocol: as §1, §2

[10] = tested on: Escherichia coli (ATCC25922); conditions: for MBC / MIC: Escherichia coli, E. coli (ATCC25922); for MBC: read-out: MBC; for MIC: read-out: MIC; for Selectivity Index (SI): ratio IC50 (THP-I) / MIC for E. coli
Protocol: as §1, §2

[11] = tested on: Burkholderia cepacia (CBC 010); conditions: Burkholderia cepacia (CBC 010); for MIC: read-out: MIC
Protocol: as §1, §2

[12] = tested on: Burkholderia cepacia (CBC 011); conditions: Burkholderia cepacia (CBC 011); for MIC: read-out: MIC
Protocol: as §1, §2

[13] = tested on: Bordetella bronchiseptica (9.73H+); conditions: B. bronchiseptica (9.73H+); for MBC: read-out: MBC; for MIC: read-out: MIC
Protocol: as §1, §2

[14] = tested on: Burkholderia cenocepacia (CBC 031); conditions: Burkholderia cenocepacia (CBC 031); for MBC: read-out: MBC; for MIC: read-out: MIC
Protocol: as §1, §2

[15] = tested on: Burkholderia multivorans (CBC 016); conditions: Burkholderia multivorans (CBC 016); for MBC: read-out: MBC; for MIC: read-out: MIC
Protocol: as §1, §2

[16] = tested on: Burkholderia seminalis (CBC 040); conditions: Burkholderia seminalis (CBC 040); for MIC: read-out: MIC
Protocol: as §1, §2

[17] = tested on: Burkholderia cenocepacia (CBC 036); conditions: Burkholderia cenocepacia (CBC 036); for MBC: read-out: MBC; for MIC: read-out: MIC
Protocol: as §1, §2

[18] = tested on: Burkholderia multivorans (CBC 018); conditions: Burkholderia multivorans (CBC 018); for MBC: read-out: MBC; for MIC: read-out: MIC
Protocol: as §1, §2

[19] = tested on: Burkholderia cenocepacia (CBC 029); conditions: Burkholderia cenocepacia (CBC 029); for MBC: read-out: MBC; for MIC: read-out: MIC
Protocol: as §1, §2

[20] = tested on: Inquilinus limosus (DSM16000); conditions: for MIC: read-out: MIC
Protocol: as §1, §2

[21] = tested on: Burkholderia multivorans (CBC 022); conditions: Burkholderia multivorans (CBC 022); for MIC: read-out: MIC
Protocol: as §1, §2

[22] = tested on: Burkholderia cenocepacia (CBC 024); conditions: Burkholderia cenocepacia (CBC 024); for MBC: read-out: MBC; for MIC: read-out: MIC
Protocol: as §1, §2

[23] = tested on: Burkholderia seminalis (CBC 042); conditions: Burkholderia seminalis (CBC 042); for MIC: read-out: MIC
Protocol: as §1, §2

B. contaminans (HNBC001) = conditions: for MIC: read-out: MIC
Protocol: as §1, §2

SMILES: O=C(NC(=Nc1c(Br)cc(F)cc1Br)Nc1c(F)cc(F)cc1Br)C12CC3CC(CC(C3)C1)C2 [H-DBF, N—(N-(2-bromo-4,6-difluorophenyl)-N′-(2,6-dibromo-4-fluorophenyl)carbamimidoyl) adamantane-1-carboxamide]
- MBC [1]: 132 µg/mL (≈ 199 µM)
- MIC [1]: 66.4 µg/mL (≈ 100 µM)
- MBC [2]: > 61.2 µg/mL
- MIC [2]: 61.2 µg/mL (≈ 92.2 µM)
- MBC [3]: > 133 µg/mL
- MIC [3]: 33.2 µg/mL (≈ 50 µM)
- MBC [4]: 132 µg/mL (≈ 199 µM)
- MIC [4]: 66.4 µg/mL (≈ 100 µM)
- MBC [5]: 132 µg/mL (≈ 199 µM)
- MIC [5]: 66.4 µg/mL (≈ 100 µM)
- MBC [6]: 66.4 µg/mL (≈ 100 µM)
- MIC [6]: 7.81 µg/mL (≈ 11.8 µM)
- Selectivity Index (SI) [6]: 17
- MBC [7]: 133 µg/mL (≈ 200 µM)
- MIC [7]: 66.4 µg/mL (≈ 100 µM)
- MBC [8]: > 133 µg/mL
- MIC [8]: 133 µg/mL (≈ 200 µM)
- MBC [9]: 132 µg/mL (≈ 199 µM)
- MIC [9]: 66.4 µg/mL (≈ 100 µM)
- MBC [10]: 66.4 µg/mL (≈ 100 µM)
- MIC [10]: 66.4 µg/mL (≈ 100 µM)
- Selectivity Index (SI) [10]: 2
- MBC [11]: > 132 µg/mL
- MIC [11]: 133 µg/mL (≈ 200 µM)
- MBC [12]: > 132 µg/mL
- MIC [12]: 66.4 µg/mL (≈ 100 µM)
- MBC [13]: 66.5 µg/mL (≈ 100 µM)
- MIC [13]: 16.6 µg/mL (≈ 25 µM)
- MBC [14]: 62.5 µg/mL (≈ 94.1 µM)
- MIC [14]: 31.2 µg/mL (≈ 47.1 µM)
- MBC [15]: > 132 µg/mL
- MIC [15]: 66.4 µg/mL (≈ 100 µM)
- MBC [16]: > 61.2 µg/mL
- MIC [16]: 61.2 µg/mL (≈ 92.2 µM)
- MBC [17]: 132 µg/mL (≈ 199 µM)
- MIC [17]: 66.4 µg/mL (≈ 100 µM)
- MBC [18]: > 132 µg/mL
- MIC [18]: 66.4 µg/mL (≈ 100 µM)
- MBC [19]: > 133 µg/mL
- MIC [19]: > 133 µg/mL
- MIC [20]: 61.2 µg/mL (≈ 92.2 µM)
- MBC [21]: > 133 µg/mL
- MIC [21]: 133 µg/mL (≈ 200 µM)
- MBC [22]: 132 µg/mL (≈ 199 µM)
- MIC [22]: 66.4 µg/mL (≈ 100 µM)
- MBC [23]: 66.4 µg/mL (≈ 100 µM)
- MIC [23]: 33.2 µg/mL (≈ 50 µM)
- MBC (B. contaminans (HNBC001)): 31.2 µg/mL (≈ 47.1 µM)
- MIC (B. contaminans (HNBC001)): 15.6 µg/mL (≈ 23.5 µM)

SMILES: O=C(NC(=Nc1c(F)cc(F)cc1Br)Nc1c(F)cc(F)cc1Br)C12CC3CC(CC(C3)C1)C2 [H-BDF, N—(N,N′-bis(2-bromo-4,6-difluorophenyl)carbamimidoyl)adamantane-1-carboxamide]
- MBC [1]: 3.9 µg/mL (≈ 6.46 µM)
- MIC [1]: 1.95 µg/mL (≈ 3.23 µM)
- MBC [2]: 61.2 µg/mL (≈ 102 µM)
- MIC [2]: 3.9 µg/mL (≈ 6.46 µM)
- MBC [3]: 3.9 µg/mL (≈ 6.46 µM)
- MIC [3]: 0.48 µg/mL (≈ 0.796 µM)
- MBC [4]: 3.9 µg/mL (≈ 6.46 µM)
- MIC [4]: 1.95 µg/mL (≈ 3.23 µM)
- MBC [5]: 7.81 µg/mL (≈ 12.9 µM)
- MIC [5]: 1.95 µg/mL (≈ 3.23 µM)
- MBC [6]: 0.97 µg/mL (≈ 1.61 µM)
- MIC [6]: 0.24 µg/mL (≈ 0.398 µM)
- Selectivity Index (SI) [6]: 62
- MBC [7]: 15.6 µg/mL (≈ 25.9 µM)
- MIC [7]: 3.9 µg/mL (≈ 6.46 µM)
- MBC [8]: 15.6 µg/mL (≈ 25.9 µM)
- MIC [8]: 3.9 µg/mL (≈ 6.46 µM)
- MBC [9]: 3.9 µg/mL (≈ 6.46 µM)
- MIC [9]: 1.95 µg/mL (≈ 3.23 µM)
- MBC [10]: 1.95 µg/mL (≈ 3.23 µM)
- MIC [10]: 0.97 µg/mL (≈ 1.61 µM)
- Selectivity Index (SI) [10]: 16
- MBC [11]: 7.81 µg/mL (≈ 12.9 µM)
- MIC [11]: 3.9 µg/mL (≈ 6.46 µM)
- MBC [12]: 30.2 µg/mL (≈ 50 µM)
- MIC [12]: 1.95 µg/mL (≈ 3.23 µM)
- MBC [13]: 1.95 µg/mL (≈ 3.23 µM)
- MIC [13]: 0.48 µg/mL (≈ 0.796 µM)
- MBC [14]: 7.81 µg/mL (≈ 12.9 µM)
- MIC [14]: 1.95 µg/mL (≈ 3.23 µM)
- MBC [15]: 7.81 µg/mL (≈ 12.9 µM)
- MIC [15]: 1.95 µg/mL (≈ 3.23 µM)
- MBC [16]: 7.81 µg/mL (≈ 12.9 µM)
- MIC [16]: 3.9 µg/mL (≈ 6.46 µM)
- MBC [17]: 7.81 µg/mL (≈ 12.9 µM)
- MIC [17]: 1.95 µg/mL (≈ 3.23 µM)
- MBC [18]: 7.81 µg/mL (≈ 12.9 µM)
- MIC [18]: 1.95 µg/mL (≈ 3.23 µM)
- MBC [19]: 15.6 µg/mL (≈ 25.9 µM)
- MIC [19]: 3.9 µg/mL (≈ 6.46 µM)
- MBC [20]: 7.81 µg/mL (≈ 12.9 µM)
- MIC [20]: 3.9 µg/mL (≈ 6.46 µM)
- MBC [21]: 7.8 µg/mL (≈ 12.9 µM)
- MIC [21]: 3.9 µg/mL (≈ 6.46 µM)
- MBC [22]: 7.81 µg/mL (≈ 12.9 µM)
- MIC [22]: 1.95 µg/mL (≈ 3.23 µM)
- MBC [23]: 7.81 µg/mL (≈ 12.9 µM)
- MIC [23]: 0.96 µg/mL (≈ 1.59 µM)
- MBC (B. contaminans (HNBC001)): 0.97 µg/mL (≈ 1.61 µM)
- MIC (B. contaminans (HNBC001)): < 0.48 µg/mL
